# Measurements reported in US6916845B2, “Method for prevention and treatment of male and female sexual dysfunction” (priority 1999, dated 2005).
# Where two headings read alike, the source gives them in different places. Marks after values point to notes of the source that are not given here.
# Assays:
# [1] = test system: SD rat; type: in vivo; conditions: for LDso: once subcutaneously, after 7 days
# Experimental: To investigate an acute toxicity of icariin, icariin was administered to SD rat. Total of 50 rats divide into 5 groups randomly and each group included 5 male and 5 female rats, respectively. The maximum dosage group for 3.0 g/kg, medium dosage group for 2.0 g/kg, sub-medium group for 1.0 g/kg and the minimum dosage group for 0.5 g/kg and comparative group for physiological saline solution only. Each of the drugs was once administered subcutaneously. After 7 days, it was shown that LDso of male was 1.88 g/kg and female was 1.96 g/kg.
# [2] = test system: rabbit's CC smooth muscle; experiment: Relaxation of PHE pre-contracted corpus cavernosum smooth muscle strips in organ chamber; type: cell-based
# Experimental: Sixty adults male New Zealand white rabbits(Weight: 2.5-3.0 kg) were used. Rabbits were anesthesia with sodium pentobarbital(50 mg/kg), penis was removed and corpus cavernous tissue were carefully isolated and made into 2×2×6 mm muscle strips for isometric tension was measured in organ chamber in vitro study with polygraph(MP 100 WS:Biopac systems, USA). CC muscle strip was fixed in 10 ml organ chamber containing Tyrode solution and continuously supplied with mixed gas(95% O2 and 5% CO2) and keep temperature at 37° C. The initial resting tensions of muscle strips were set at 2 g and tissue was allowed to equilibrate for 1.5-3.0 hours. Sub-maximal contractile responses to phenylepherine(PHE 5×10^-6 M) were observed and optimal isometric tension was determined. To evaluate the relaxation effects of icariin (the other components magnoflorine, querectin, epimedin A, B and C as the controls) on CC muscle strips, investigated the relaxation effects of different dosage of icariin on muscle strips pre-contracted by PHE. And to investigate the pharmaceutical action mechanism, the effects of […] Nω-nitric-L-arginine(L-NNA), guanylate cyclase antagonist methylene blue and pyrogallol, soluble guanylate cyclase inhibitor 1H-[1,2,4]oxadiazolo[4,3,-a]quinoxalin-1-one (ODQ) on the relaxation effects of icariin on CC.
# [3] = test system: adult male rat; experiment: Intracavernosal press (ICP) changes after intracavernosal administration and cavernous nerve electrical stimulation; type: in vivo; conditions: CN stimulation 10 minutes later
# Experimental: (§1) Twenty-four male, adult Wistar rats(weight:300-350 g) were used. After anesthetization, the left carotid artery was cannulated to monitor mean arterial pressure (MAP). Bipolar electrodes were positioned on the cavernous nerve (CN); the right cavernous body was cannulated with 26 G needle connected with Biopack MP100 to monitor ICP changes. After intracavemosal administration of 100 μl different concentration Icariin or Reserpine (10^−8M to 10^−4M) respectively, the CN was electrically stimulated (ES) 10 minutes later and ICP and MAP were monitored. In order to investigate the possible mechanism of the effect of icariin on ICP changes, 100 μl different concentration guanylate cyclase inhibitor ODQ (10^−8M-10^−4M) were intracavemosal administrated 10 minutes after Icariin (100 μl 10^−4M) administration into CC, and then the ICP was measured during erection, which was, followed the ES.
# [4] = test system: adult male rat; conditions: in vivo
# Experimental: as §1
# [5] = test system: cGMP formation in rabbit corpus cavernosum; experiment: cGMP formation in corpus cavernosum of penis stimulated with SNP, radioimmunoassay; type: cell-based; conditions: in the presence of SNP
# [6] = test system: cAMP formation in rabbit corpus cavernosum; experiment: cAMP formation in corpus cavernosum of penis stimulated with SNP, radioimmunoassay; type: cell-based
# [7] = molecular target: T1, PDE5 isolated from human platelets (Homo sapiens, UniProt O76074); experiment: Inhibition of cGMP specific PDE5, two-step radioisotope procedure; type: biochemical
# T1 construct: PDE5 and PDE4 were isolated from human platelets and liver tissue using a Pharmacia FPLC system and Mono Q column; from tissue; host or cells: human platelets
# Experimental: (§2) PDE5 and PDE4 were isolated from human platelets and liver tissue using a Pharmacia FPLC system and Mono Q column. The cyclic nucleotide PDE5/PDE4 activities in FPLC fractions were determined using a modification of the two-step radioisotope procedure ([^3H]GMP/[^3H]AMP).
# [8] = test system: PDE4 isolated from human liver tissue; experiment: Inhibition of cAMP specific PDE4, two-step radioisotope procedure; type: biochemical
# Experimental: as §2
# [9] = test system: cGMP formation in clitoris CC of female rabbits; experiment: cGMP formation in CC of clitoris stimulated with SNP, radioimmunoassay; type: cell-based, rabbit
# [10] = test system: castrated male Wistar rats; experiment: Sexual activities (mating behavior) in castrated rat model after long-term oral administration; type: in vivo; conditions: Group C and D, oral icariin for 3 months, n=10/12
# Experimental: (§3) Male Wistar rats(300-350 g)(n=24) randomly divide into 4 Groups; Group A for control; Group B for castrated and administration normal saline; Group C for castrated and oral administration Icariin […]; Group D for castrated and oral administration Icariin (5 mg/kg) for 3 months. After observe mating behavior, the animal was killed, the penis was excised rapidly, and cut into four parts. One of them used for immuohistochemical stain, the others was socked into RNAlater and stored in −70 condition. nNOS, eNOS, iNOS mRNA were semi-quantified by RT-PCR, β-actin as a controls. Specificity of RT-PCR products was confirmed by sequencing procedure, with-assay and between-assay variation was carried out respectively.
# [11] = test system: iNOS mRNA; experiment: iNOS mRNA expression in penis of castrated rat model by RT-PCR; type: in vivo; conditions: for Mean conc./area (iNOS) / Ratio (iNOS/β-actin): castrated, 3 months
# Experimental: as §3
# [12] = test system: nNOS mRNA; experiment: nNOS mRNA expression in penis of castrated rat model by RT-PCR; type: in vivo; conditions: for Mean conc./area (nNOS) / Ratio (nNOS/β-actin): castrated, 3 months
# Experimental: as §3
compound,measurement,setting,value
"COc1ccc(-c2oc3c(CC=C(C)C)c(O[C@@H]4O[C@H](CO)[C@@H](O)[C@H](O)[C@H]4O)cc(O)c3c(=O)c2O[C@@H]2O[C@@H](C)[C@H](O)[C@@H](O)[C@H]2O)cc1 [Icariin, icariin]",acute toxicity,"[1]; SD rat, subcutaneous",low toxicity
same,LDso,[1]; female SD rat,1960 mg/kg
same,LDso,[1]; male SD rat,1880 mg/kg
same,EC50,"[2]; Oryctolagus cuniculus, read-out: EC50 on the relaxation effects of CC smooth muscle",467 µM
same,relaxation effects on pre-contracted CC muscle strips,[2]; icariin 10^−4M,23.12 ± 1.36%
same,relaxation effects on pre-contracted CC muscle strips,[2]; icariin 10^−5M,4.42±1.08%
same,relaxation effects on pre-contracted CC muscle strips,[2]; icariin 10^−6M,1.23±0.82%
same,relaxation effects on pre-contracted CC muscle strips,[2]; icariin 10^−7M,0.08±0.04%
same,Increase ICP,[3]; 100 μl 10^−4M intracavernosal,58.01 ± 5.78%
same,Increase ICP,[3]; 100 μl 10^−5M intracavernosal,30.48 ± 3.06%
same,Increase ICP,[3]; 100 μl 10^−6M intracavernosal,10.82 ± 1.06%
same,Increase ICP,[3]; 100 μl 10^−7M intracavernosal,5.53 ± 0.69%
same,influence on MAP,[4],no obviously influence
same,cGMP concentration changes,[5]; 10^−3M,10.43 ± 1.49 fmol/mg/min
same,cGMP concentration changes,[5]; 10^−4M,10.82 ± 1.58 fmol/mg/min
same,cGMP concentration changes,[5]; 10^−5M,8.92 ± 1.67 fmol/mg/min
same,cGMP concentration changes,[5]; 10^−6M,8.66 ± 2.03 fmol/mg/min
same,influence on cAMP levels,[6],no significantly influenced
same,IC50,[7],0.432 µM
same,inhibiting potency on PDE5 weaker than that of Sildenafil,[7],108.10 times
same,specificity of inhibition PDE5 compared to PDE4,[7]; ratio of IC50 PDE4/PDE5,170.14 times
same,IC50,[8],73.5 µM
same,cGMP concentration in clitoris CC,[9],significantly increased
same,EC50,"[9]; Oryctolagus cuniculus, read-out: EC50 (cGMP formation, CC of clitoris)",3.16 µM
same,castrated rats restored sexual activities,[10],83.3%
same,iNOS mRNA compared to control Group B,"[11]; Group C and D, p<0.05",significantly increased
same,Mean conc./area (iNOS),"[11]; Group C, oral Icariin (mg/kg)",17.28
same,Ratio (iNOS/β-actin),"[11]; Group C, oral Icariin (mg/kg)",0.50*
same,Mean conc./area (iNOS),"[11]; Group D, oral Icariin 5 mg/kg",23.20
same,Ratio (iNOS/β-actin),"[11]; Group D, oral Icariin 5 mg/kg",0.74*
same,nNOS mRNA compared to control Group B,"[12]; Group C and D, p<0.05",significantly increased
same,Mean conc./area (nNOS),"[12]; Group C, oral Icariin (mg/kg)",44.60
same,Ratio (nNOS/β-actin),"[12]; Group C, oral Icariin (mg/kg)",0.82*
same,Mean conc./area (nNOS),"[12]; Group D, oral Icariin 5 mg/kg",36.40
same,Ratio (nNOS/β-actin),"[12]; Group D, oral Icariin 5 mg/kg",1.08*
